The record followed here is patent publication US20250144067A1, “PERSONALIZED STARVATION THERAPY FOR CANCER” (Faeth Therapeutics, Inc., priority 2021, published 2025).

Assay [1] has as its system NCI-H292 lung cancer cells. The assay can be described thus: FDA drug screening, complete media vs cholesterol-free media without statin (TABLE 1). Format: cell-based, human.
The subject of assay [2] is NCI-H292 lung cancer cells. In words: FDA drug screening, complete media vs cholesterol-free media with simvastatin (TABLE 2). Format: cell-based, human.
Setting [3] is: Complete minus Cholesterol-free, […].
The mark [4] stands for this setting: NCI-H292 cells, cholesterol-free media without statin, FDA drug library screen.
The mark [5] stands for this setting: NCI-H292 cells, complete media, FDA drug library screen.
Where [6] appears, read: NCI-H292 cells, cholesterol-free media with simvastatin 0.04 μM, FDA drug library screen (TABLE 2).
The mark [7] stands for this setting: NCI-H292 cells, complete media, FDA drug library screen (TABLE 2).
The mark [8] stands for this setting: Complete minus Cholesterol-free, greater than 0 enhanced anti-cancer activity, about 0 neutral, below 0 antagonist.
The mark [9] stands for this setting: NCI-H292 cells, FDA drug library screen, cholesterol-free media without statin.
[10] abbreviates: NCI-H292 cells, FDA drug library screen, complete media.
[11] abbreviates: complete media minus cholesterol-free media + simvastatin (0.04 μM), >0 enhanced anti-cancer activity, about 0 neutral, <0 antagonist.
[12] abbreviates: Complete minus Cholesterol-free, greater than 0 enhanced anti-cancer activity, about 0 neutral, below 0 antagonists.
Setting [13] is: NCI-H292 cells in cholesterol-free media without statin.
Setting [14] is: NCI-H292 cells in complete media.
Where [15] appears, read: NCI-H292 cells, FDA library drug in cholesterol-free media with simvastatin 0.04 μM.
Setting [16] is: NCI-H292 cells, FDA library drug in complete media.
[17] abbreviates: complete media vs cholesterol-free media + simvastatin (0.04 μM), >0 enhanced anti-cancer activity, about 0 neutral, <0 antagonist.
Setting [18] is: NCI-H292 cells, cholesterol-free media without statin.
[19] abbreviates: NCI-H292 cells, FDA drug library screen, cholesterol-free media with simvastatin 0.04 μM.
Where [20] appears, read: complete media vs cholesterol-free media + simvastatin (0.04 μM), […].
Setting [21] is: NCI-H292 cells, drug in cholesterol-free media with simvastatin 0.04 μM.
[22] abbreviates: NCI-H292 cells, drug in complete media.
The mark [23] stands for this setting: complete vs cholesterol-free media, greater than 0 enhanced anti-cancer activity, about 0 neutral, below 0 antagonists.
Where [24] appears, read: complete vs cholesterol-free media, >0 enhanced anti-cancer activity, about 0 neutral, <0 antagonist.
Where [25] appears, read: Complete minus Cholesterol-free, >0 enhanced anti-cancer activity, about 0 neutral, <0 antagonist.

Where a name gives a salt, the structure may show the parent alone. Read-outs that look alike come from different tables or passages of the source.

As for `Cc1nnc(C(=O)NC(C)(C)c2nc(C(=O)NCc3ccc(F)cc3)c(O)c(=O)n2C)o1` [Raltegravir], in assay [1], the Cholesterol-free was 1.135, the Complete was determined as 0.9505 and the Difference is recorded as −0.18. Further, in assay [2], the “Cholesterol-free media + simvastatin (0.04 μM)” value amounted to 1.209, the “Complete Media” value was 1.119 and the Difference is given as −0.09.

Consider `C[C@@H]1O[C@@H](O[C@H]2C[C@@H](O)[C@]3(CO)[C@H]4[C@H](O)C[C@]5(C)[C@@H](C6=CC(=O)OC6)CC[C@]5(O)[C@@H]4CC[C@]3(O)C2)[C@H](O)[C@H](O)[C@H]1O.O.O.O.O.O.O.O.O` [Ouabain (Octahydrate)], for which the Difference was 0.01 in assay [1] (setting [3]) and −0.01 in assay [2] (complete media minus cholesterol-free media + simvastatin (0.04 μM), […]). This compound gave a Cholesterol-free in assay [1] (setting [4]) of −0.009774. This compound also displayed a Complete in assay [1] (setting [5]) of −0.0006686. Further, the “Cholesterol-free media + simvastatin (0.04 μM)” value in assay [2] (setting [6]) is reported as 0.0005446. The “Complete Media” value in assay [2] (setting [7]) is −0.01106.

As to Lenvatinib (mesylate), the Difference is −0.10 in assay [1] (setting [8]) and −0.02 in assay [2] (setting [11]). Besides, the Cholesterol-free in assay [1] (setting [9]) was 0.845. Further, the Complete in assay [1] (setting [10]) worked out at 0.7401. Moreover, in assay [2] (setting [6]), the “Cholesterol-free media + simvastatin (0.04 μM)” value is 1.17. Also, the “Complete Media” value in assay [2] (setting [7]) is reported as 1.154.

Regarding `COc1c2occc2cc2ccc(=O)oc12` [Methoxsalen], the Difference in assay [1] (setting [12]) was −0.72; in assay [2] (setting [17]), −0.38. The compound also gave a Cholesterol-free in assay [1] (setting [13]) of 1.514. Further, in assay [1] (setting [14]), the Complete is recorded as 0.7902. For the same compound, the “Cholesterol-free media + simvastatin (0.04 μM)” value in assay [2] (setting [15]) stood at 1.34. Moreover, the “Complete Media” value in assay [2] (setting [16]) was 0.9575.

Consider `CC(=O)OCC1=C(C(=O)O)N2C(=O)[C@@H](NC(=O)CSC(=NC(C)C)NC(C)C)[C@H]2SC1` [Cefathiamidine], for which the Difference was −0.30 in assay [1] (setting [3]) and −0.08 in assay [2] (setting [20]). Moreover, in assay [1] (setting [18]), the Cholesterol-free worked out at 1.276. For the same compound, the Complete in assay [1] (NCI-H292 cells, complete media) is on record as 0.9789. For the same compound, the “Cholesterol-free media + simvastatin (0.04 μM)” value in assay [2] (setting [19]) is 0.9136. In addition, in assay [2] (setting [10]), the “Complete Media” value came to 0.833.

On to `CC(C)(Sc1cc(C(C)(C)C)c(O)c(C(C)(C)C)c1)Sc1cc(C(C)(C)C)c(O)c(C(C)(C)C)c1` [Probucol], for which the Difference in assay [1] (setting [12]) is −0.87; in assay [2] (setting [17]) it was −0.21. The Cholesterol-free in assay [1] (setting [13]) is 1.75. In addition, the Complete in assay [1] (setting [14]) is on record as 0.8825. Besides, the “Cholesterol-free media + simvastatin (0.04 μM)” value in assay [2] (setting [21]) is given as 1.293. Also, in assay [2] (setting [22]), the “Complete Media” value was 1.087.

The compound `Cc1ccc(C(C)C)c(O)c1` [Thymol] had a Cholesterol-free in assay [1] (setting [18]) of 1.354. In assay [1] (NCI-H292 cells, complete media), the Complete worked out at 1.041. Further, the Difference in assay [1] (setting [23]) is −0.31; in assay [2] (setting [17]), −0.23. In addition, the “Cholesterol-free media + simvastatin (0.04 μM)” value in assay [2] (setting [21]) was determined as 1.184. Further, in assay [2] (setting [22]), the “Complete Media” value is given as 0.956.

Turning to `O=c1[nH]ccc2c(S(=O)(=O)N3CCCNCC3)cccc12` [Hydroxyfasudil (hydrochloride)], in assay [1], the Cholesterol-free was found to be 1.045, the Complete is 0.7884 and the Difference is −0.26. Also, in assay [2], the “Cholesterol-free media + simvastatin (0.04 μM)” value turned out to be 0.8461, the “Complete Media” value came to 0.9788 and the Difference was determined as 0.13.

With `CO[C@@H]1[C@@H](O[C@@H]2O[C@H](C)[C@@H](O[C@H]3C[C@@](C)(O)[C@@H](OC(=O)CC(C)C)[C@H](C)O3)[C@H](N(C)C)[C@H]2O)[C@@H](CC=O)C[C@@H](C)[C@@H](O)/C=C/C=C/C[C@@H](C)OC(=O)C[C@H]1OC(C)=O` [Josamycin], in assay [1] (setting [4]), the Cholesterol-free amounted to 0.6797. For the same compound, in assay [1] (setting [5]), the Complete came to 1.216. Further, the Difference in assay [1] (setting [24]) is 0.54; in assay [2] (setting [17]) it was −0.09. Also, in assay [2] (setting [19]), the “Cholesterol-free media + simvastatin (0.04 μM)” value worked out at 0.9194. For the same compound, the “Complete Media” value in assay [2] (setting [10]) is reported as 0.8246.

For `C=CC1=C(C(=O)O)N2C(=O)[C@@H](NC(=O)/C(=N\OCC(=O)O)c3csc(N)n3)[C@H]2SC1` [Cefixime], the figures for the Difference in assay [1] (setting [25]) and in assay [2] (setting [17]) were 0.05 and −0.24, respectively. This compound showed a Cholesterol-free in assay [1] (setting [4]) of 1.137. The compound also came in with a Complete in assay [1] (setting [5]) of 1.188. Besides, the “Cholesterol-free media + simvastatin (0.04 μM)” value in assay [2] (setting [21]) turned out to be 1.663. Besides, the “Complete Media” value in assay [2] (setting [22]) was 1.418.

Consider `O=C(O)c1cc(=O)c2ccccc2o1` [Chromocarb], for which, in assay [1] (setting [18]), the Cholesterol-free is recorded as 1.221. In addition, the Complete in assay [1] (NCI-H292 cells, complete media) is reported as 0.8012. Besides, the Difference in assay [1] (setting [23]) is −0.42; in assay [2] (setting [17]) it was −0.46. In addition, the “Cholesterol-free media + simvastatin (0.04 μM)” value in assay [2] (setting [15]) was 1.932. Further, the “Complete Media” value in assay [2] (setting [16]) was determined as 1.471.

With `O=C(O)CCC(=O)Nc1ccc(S(=O)(=O)Nc2nccs2)cc1` [Succinylsulfathiazole], the figures for the Difference in assay [1] (setting [25]) and in assay [2] (setting [11]) were 0.03 and −0.04, respectively. In assay [1] (setting [4]), the Cholesterol-free came out at 0.852. Also, in assay [1] (setting [5]), the Complete stood at 0.8836. For the same compound, the “Cholesterol-free media + simvastatin (0.04 μM)” value in assay [2] (setting [6]) turned out to be 1.231. Besides, the “Complete Media” value in assay [2] (setting [7]) worked out at 1.191.

In assay [1] (setting [18]), `CC(C)Cc1ccc(C(C)C(=O)O)cc1` (stereo not shown) [Ibuprofen] showed a Cholesterol-free of 1.419. In addition, the Complete in assay [1] (NCI-H292 cells, complete media) came to 1.058. In addition, the Difference in assay [1] (setting [23]) and in assay [2] (setting [17]) was −0.36 each time. Moreover, in assay [2] (setting [15]), the “Cholesterol-free media + simvastatin (0.04 μM)” value turned out to be 1.512.

Regarding `Cc1ncc(CO)c(CO)c1O.Cl` [Pyridoxine (hydrochloride)], the Difference in assay [1] (setting [3]) is recorded as −0.61; in assay [2] (setting [20]), −0.34. The same compound yielded a Cholesterol-free in assay [1] (setting [13]) of 1.496. Further, the Complete in assay [1] (setting [14]) came to 0.8868. Moreover, in assay [2] (setting [15]), the “Cholesterol-free media + simvastatin (0.04 μM)” value is 1.33. The “Complete Media” value in assay [2] (setting [16]) is reported as 0.9936.

Regarding `Cc1c(C(C)C)c(=O)n(-c2ccccc2)n1C` [Propyphenazone], the Difference is listed as −0.12 in assay [1] (setting [8]) and −1.31 in assay [2] (setting [11]). The same compound yielded a Cholesterol-free in assay [1] (setting [9]) of 1.128. Moreover, the Complete in assay [1] (setting [10]) came out at 1.005. In addition, in assay [2] (setting [19]), the “Cholesterol-free media + simvastatin (0.04 μM)” value is 2.378.

Turning to `CO[C@@]1(NC(=O)CSCC#N)C(=O)N2C(C(=O)O)=C(CSc3nnnn3C)CS[C@@H]21` [Cefmetazole (sodium)], in assay [1] (setting [4]), the Cholesterol-free is given as 0.6502. The Complete in assay [1] (setting [5]) worked out at 0.9897. The Difference in assay [1] (setting [24]) is 0.34; in assay [2] (setting [17]) it was −0.16. Moreover, the “Cholesterol-free media + simvastatin (0.04 μM)” value in assay [2] (setting [19]) was determined as 1.32. For the same compound, the “Complete Media” value in assay [2] (setting [10]) was 1.164.

Take `CCCNS(=O)(=O)Nc1ncnc(OCCOc2ncc(Br)cn2)c1-c1ccc(Br)cc1` [Macitentan]: the Difference was −0.48 in assay [1] (setting [12]) and −0.14 in assay [2] (setting [17]). The compound also came in with a Cholesterol-free in assay [1] (setting [13]) of 1.592. The same compound gave a Complete in assay [1] (setting [14]) of 1.113. Further, the “Cholesterol-free media + simvastatin (0.04 μM)” value in assay [2] (setting [19]) was determined as 1.697. The “Complete Media” value in assay [2] (setting [10]) was determined as 1.56.

The compound `Cn1c(=O)c2c(ncn2CCO)n(C)c1=O` [Etofylline] yielded a Cholesterol-free in assay [1] (setting [4]) of 1.261. Moreover, in assay [1] (setting [5]), the Complete came out at 1.355. Besides, the Difference in assay [1] (setting [24]) turned out to be 0.09; in assay [2] (complete media minus cholesterol-free media + simvastatin, >0 enhanced anti-cancer activity, about 0 neutral, <0 antagonist), 0.16. In addition, in assay [2] (setting [19]), the “Cholesterol-free media + simvastatin (0.04 μM)” value worked out at 0.885. For the same compound, in assay [2] (setting [10]), the “Complete Media” value came out at 1.042.

For `C[C@]12CC[C@@H]3c4ccc(O)cc4CC[C@H]3[C@@H]1C[C@@H](O)[C@@H]2O` [Estriol], the Cholesterol-free in assay [1] (setting [18]) is 1.14. This compound also returned a Complete in assay [1] (NCI-H292 cells, complete media) of 0.7448. For the same compound, the Difference is given as −0.40 in assay [1] (setting [23]) and −0.10 in assay [2] (setting [17]). The “Cholesterol-free media + simvastatin (0.04 μM)” value in assay [2] (setting [19]) was determined as 0.9551. Further, in assay [2] (setting [10]), the “Complete Media” value was 0.851.
